Data: ChEMBL document CHEMBL3046275, “EBHU18, a novel derivative of fatty acid bile acid conjugates, prevents cholesterol gallstone formation in experimental mice” (Med Chem Res, 2012)
Activity calls are given as the source filed them. The rule behind the calls is not given here.

Key:
Mus musculus [1] = experiment: Reduction of lithogenic diet-induced gallstone formation in Mus musculus C57BL/6 (mouse) at 0.5 mg/kg/day, po followed by lithogenic diet feeding for 8 weeks by infrared photoacoustic spectroscopic analysis (reference value: 1.53 +/- 0.63 g); assay type: functional
Mus musculus [2] = experiment: Toxicity in lithogenic diet-fed Mus musculus C57BL/6 (mouse) assessed as change in body weight at 3 mg/kg/day, po followed by lithogenic diet feeding for 8 weeks (reference value: 30.82 +/- 2.88 g); assay type: organism-based; set-up: route oral; details: in vivo, 1344 h
Mus musculus [3] = experiment: Toxicity in lithogenic diet-fed Mus musculus C57BL/6 (mouse) assessed as change in body weight at 0.5 mg/kg/day, po followed by lithogenic diet feeding for 8 weeks (reference value: 30.82 +/- 2.88 g); assay type: organism-based; set-up: route oral; details: in vivo, 1344 h
Mus musculus [4] = experiment: Hepatoprotective activity in lithogenic diet-fed Mus musculus C57BL/6 (mouse) assessed as decrease in serum triglyceride level at 0.5 to 3 mg/kg/day, po after 8 weeks relative to untreated control; assay type: functional, organism-based
Mus musculus [5] = experiment: Hepatoprotective activity in lithogenic diet-fed Mus musculus C57BL/6 (mouse) assessed as decrease in serum total cholesterol level at 0.5 to 3 mg/kg/day, po after 8 weeks relative to untreated control; assay type: functional, organism-based
Mus musculus [6] = experiment: Hepatoprotective activity in lithogenic diet-fed Mus musculus C57BL/6 (mouse) assessed as decrease in serum ALT level at 0.5 to 3 mg/kg/day, po after 8 weeks relative to untreated control; assay type: functional, organism-based
Mus musculus [7] = experiment: Protection against lithogenic diet-induced gallstone formation in Mus musculus C57BL/6 (mouse) at 0.5 mg/kg/day, po after 8 weeks by infrared photoacoustic spectroscopic analysis relative to untreated control; assay type: functional, organism-based
Mus musculus [8] = experiment: Protection against lithogenic diet-induced gallstone formation in Mus musculus C57BL/6 (mouse) at 3 mg/kg/day, po after 8 weeks by infrared photoacoustic spectroscopic analysis relative to untreated control; assay type: functional, organism-based
Mus musculus [9] = experiment: Reduction of lithogenic diet-induced fatty liver formation in Mus musculus C57BL/6 (mouse) at 0.5 to 3 mg/kg/day, po after 8 weeks by hematoxylin-eosin staining relative to untreated control; assay type: functional, organism-based
Mus musculus [10] = experiment: Toxicity in lithogenic diet-fed Mus musculus C57BL/6 (mouse) assessed as change in body weight at 0.5 to 3 mg/kg/day, po after 8 weeks; assay type: organism-based; set-up: route oral; details: in vivo, 1344 h
Mus musculus [11] = experiment: Reduction of lithogenic diet-induced fatty liver formation in Mus musculus C57BL/6 (mouse) at 0.5 to 3 mg/kg/day, po followed by lithogenic diet feeding for 8 weeks by hematoxylin-eosin staining relative to untreated control; assay type: functional, organism-based
Mus musculus [12] = experiment: Hepatoprotective activity in lithogenic diet-fed Mus musculus C57BL/6 (mouse) assessed as decrease in serum total cholesterol level at 3 mg/kg/day, po followed by lithogenic diet feeding for 8 weeks (reference value: 2.24 +/- 0.27 mmol/l); assay type: functional
Mus musculus [13] = experiment: Hepatoprotective activity in lithogenic diet-fed Mus musculus C57BL/6 (mouse) assessed as decrease in serum total cholesterol level at 0.5 mg/kg/day, po followed by lithogenic diet feeding for 8 weeks (reference value: 2.24 +/- 0.27 mmol/l); assay type: functional
Mus musculus [14] = experiment: Hepatoprotective activity in lithogenic diet-fed Mus musculus C57BL/6 (mouse) assessed as decrease in serum triglyceride level at 3 mg/kg/day, po followed by lithogenic diet feeding for 8 weeks (reference value: 1.01+/- 0.15 mmol/l); assay type: functional
Mus musculus [15] = experiment: Hepatoprotective activity in lithogenic diet-fed Mus musculus C57BL/6 (mouse) assessed as decrease in serum triglyceride level at 0.5 mg/kg/day, po followed by lithogenic diet feeding for 8 weeks (reference value: 1.01+/- 0.15 mmol/l); assay type: functional
Mus musculus [16] = experiment: Hepatoprotective activity in lithogenic diet-fed Mus musculus C57BL/6 (mouse) assessed as decrease in serum ALT level at 3 mg/kg/day, po followed by lithogenic diet feeding for 8 weeks (reference value: 42.6 +/- 7.63 IU/L); assay type: functional
Mus musculus [17] = experiment: Hepatoprotective activity in lithogenic diet-fed Mus musculus C57BL/6 (mouse) assessed as decrease in serum ALT level at 0.5 mg/kg/day, po followed by lithogenic diet feeding for 8 weeks (reference value: 42.6 +/- 7.63 IU/L); assay type: functional
Mus musculus [18] = experiment: Reduction of lithogenic diet-induced gallstone formation in Mus musculus C57BL/6 (mouse) at 3 mg/kg/day, po followed by lithogenic diet feeding for 8 weeks by infrared photoacoustic spectroscopic analysis (reference value: 1.53 +/- 0.63 g); assay type: functional
Mus musculus [19] = experiment: Reduction of lithogenic diet-induced gallstone formation in Mus musculus C57BL/6 (mouse) at 10 mg/kg/day, po followed by lithogenic diet feeding for 8 weeks by infrared photoacoustic spectroscopic analysis (reference value: 1.53 +/- 0.63 g); assay type: functional
Mus musculus [20] = experiment: Toxicity in lithogenic diet-fed Mus musculus C57BL/6 (mouse) assessed as change in body weight at 10 mg/kg/day, po followed by lithogenic diet feeding for 8 weeks (reference value: 30.82 +/- 2.88 g); assay type: organism-based; set-up: route oral; details: in vivo, 1344 h
Mus musculus [21] = experiment: Hepatoprotective activity in lithogenic diet-fed Mus musculus C57BL/6 (mouse) assessed as decrease in serum triglyceride level at 10 mg/kg/day, po after 8 weeks relative to untreated control; assay type: functional, organism-based
Mus musculus [22] = experiment: Hepatoprotective activity in lithogenic diet-fed Mus musculus C57BL/6 (mouse) assessed as decrease in serum total cholesterol level at 10 mg/kg/day, po after 8 weeks relative to untreated control; assay type: functional, organism-based
Mus musculus [23] = experiment: Hepatoprotective activity in lithogenic diet-fed Mus musculus C57BL/6 (mouse) assessed as decrease in serum ALT level at 10 mg/kg/day, po after 8 weeks relative to untreated control; assay type: functional, organism-based
Mus musculus [24] = experiment: Toxicity in lithogenic diet-fed Mus musculus C57BL/6 (mouse) assessed as change in body weight at 10 mg/kg/day, po after 8 weeks; assay type: organism-based; set-up: route oral; details: in vivo, 1344 h
Mus musculus [25] = experiment: Protection against lithogenic diet-induced gallstone formation in Mus musculus C57BL/6 (mouse) at 10 mg/kg/day, po after 8 weeks by infrared photoacoustic spectroscopic analysis relative to untreated control; assay type: functional, organism-based
Mus musculus [26] = experiment: Reduction of lithogenic diet-induced fatty liver formation in Mus musculus C57BL/6 (mouse) at 10 mg/kg/day, po followed by lithogenic diet feeding for 8 weeks by hematoxylin-eosin staining relative to untreated control; assay type: functional, organism-based
Mus musculus [27] = experiment: Hepatoprotective activity in lithogenic diet-fed Mus musculus C57BL/6 (mouse) assessed as decrease in serum total cholesterol level at 10 mg/kg/day, po followed by lithogenic diet feeding for 8 weeks (reference value: 2.24 +/- 0.27 mmol/l); assay type: functional
Mus musculus [28] = experiment: Hepatoprotective activity in lithogenic diet-fed Mus musculus C57BL/6 (mouse) assessed as decrease in serum triglyceride level at 10 mg/kg/day, po followed by lithogenic diet feeding for 8 weeks (reference value: 1.01+/- 0.15 mmol/l); assay type: functional
Mus musculus [29] = experiment: Hepatoprotective activity in lithogenic diet-fed Mus musculus C57BL/6 (mouse) assessed as decrease in serum ALT level at 10 mg/kg/day, po followed by lithogenic diet feeding for 8 weeks (reference value: 42.6 +/- 7.63 IU/L); assay type: functional

CCCCCCCCCCCCCCCCCCCC(=O)NCCCCC(NC(=O)CC[C@@H](C)[C@H]1CC[C@H]2[C@@H]3C(O)C[C@@H]4C[C@H](O)CC[C@]4(C)[C@H]3C[C@H](O)[C@]12C)C(=O)O (some centres undefined)
Activity (Mus musculus [1]): 1.02 g | Activity (Mus musculus [2]): 31.74 g | Activity (Mus musculus [3]): 31.89 g | Activity (Mus musculus [4]): Active | Activity (Mus musculus [5]): Active | Activity (Mus musculus [6]): Active | Activity (Mus musculus [7]): inactive | Activity (Mus musculus [8]): Active | Activity (Mus musculus [9]): Active | Activity (Mus musculus [10]): Non-toxic | Activity (Mus musculus [11]): Active | Activity (Mus musculus [12]): 2.04 mmol/L | Activity (Mus musculus [13]): 2.09 mmol/L | Activity (Mus musculus [14]): 0.74 mmol/L | Activity (Mus musculus [15]): 0.76 mmol/L | Activity (Mus musculus [16]): 36.5 IU/L | Activity (Mus musculus [17]): 34.8 IU/L | Activity (Mus musculus [18]): 0.96 g

C[C@H](CCC(=O)O)[C@H]1CC[C@H]2[C@@H]3[C@@H](O)C[C@@H]4C[C@H](O)CC[C@]4(C)[C@H]3CC[C@]12C [URSODIOL]
Activity (Mus musculus [19]): 1.41 g | Activity (Mus musculus [20]): 31.76 g | Activity (Mus musculus [21]): Active | Activity (Mus musculus [22]): Active | Activity (Mus musculus [23]): Active | Activity (Mus musculus [24]): Non-toxic | Activity (Mus musculus [25]): inactive | Activity (Mus musculus [26]): inactive | Activity (Mus musculus [27]): 2.16 mmol/L | Activity (Mus musculus [28]): 0.75 mmol/L | Activity (Mus musculus [29]): 38 IU/L
